Results as given in patent US20250312462A1, “PAK1 DEGRADERS AND METHODS OF USE THEREOF” (INSTITUTE FOR CANCER RESEARCH D/B/A THE RESEARCH INSTITUTE …, priority 2022, published 2025).
Where two headings read alike, the source gives them in different places.

Assays:
Hey A8 cells = assay: Cell proliferation, MTT assay; format: cell-based
Protocol: (§1) Cell proliferation was assessed by MTT assay.
(§2) Cell viability was measured by MTT assay and the half maximal inhibitory concentration (IC50) was calculated using GraphPad Prism. Triplicates were performed for each sample and medium alone was used as a blank.
(§3) The anti-proliferative effects of PAK1 degradation and inhibition were evaluated.

MCF7 cells = assay: Cell proliferation, MTT assay; format: cell-based; details: Homo sapiens, MCF7, MCF7 cells, read-out: EC50, anti-proliferative
Protocol: as §1, §2, §3

OMM1 cells = assay: Cell proliferation, MTT assay; format: cell-based; details: OMM1 cells (PAK2-dependent)
Protocol: as §1, §2, §3

TNIK = TNIK (Homo sapiens, UniProt Q9UKE5); assay: KINOMEscan; details: read-out: Percent Control
Protocol: (§4) The kinase engagement assay (KINOMEscan®) was performed by DiscoverX assessing binding abilities toward a set of kinases.

MST3 = MST3 (Homo sapiens, UniProt Q9Y6E0); assay: KINOMEscan; details: read-out: Percent Control
Sequence of MST3 (Q9Y6E0 whole entry): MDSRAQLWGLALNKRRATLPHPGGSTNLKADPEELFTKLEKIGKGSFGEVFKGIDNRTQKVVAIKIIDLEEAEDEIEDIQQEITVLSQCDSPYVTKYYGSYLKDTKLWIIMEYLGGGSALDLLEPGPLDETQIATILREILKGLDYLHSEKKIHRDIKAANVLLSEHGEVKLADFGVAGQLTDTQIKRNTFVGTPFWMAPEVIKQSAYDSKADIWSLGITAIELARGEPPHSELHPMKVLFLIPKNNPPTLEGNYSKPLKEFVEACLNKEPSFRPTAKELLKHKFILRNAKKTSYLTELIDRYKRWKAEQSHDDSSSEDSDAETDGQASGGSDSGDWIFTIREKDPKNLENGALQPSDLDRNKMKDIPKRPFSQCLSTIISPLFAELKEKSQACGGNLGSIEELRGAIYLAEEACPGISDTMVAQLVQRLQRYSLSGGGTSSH
Protocol: as §4

PRKG1 = PRKG1 (Homo sapiens, UniProt Q13976); assay: KINOMEscan; details: read-out: Percent Control
Sequence of PRKG1 (Q13976 whole entry): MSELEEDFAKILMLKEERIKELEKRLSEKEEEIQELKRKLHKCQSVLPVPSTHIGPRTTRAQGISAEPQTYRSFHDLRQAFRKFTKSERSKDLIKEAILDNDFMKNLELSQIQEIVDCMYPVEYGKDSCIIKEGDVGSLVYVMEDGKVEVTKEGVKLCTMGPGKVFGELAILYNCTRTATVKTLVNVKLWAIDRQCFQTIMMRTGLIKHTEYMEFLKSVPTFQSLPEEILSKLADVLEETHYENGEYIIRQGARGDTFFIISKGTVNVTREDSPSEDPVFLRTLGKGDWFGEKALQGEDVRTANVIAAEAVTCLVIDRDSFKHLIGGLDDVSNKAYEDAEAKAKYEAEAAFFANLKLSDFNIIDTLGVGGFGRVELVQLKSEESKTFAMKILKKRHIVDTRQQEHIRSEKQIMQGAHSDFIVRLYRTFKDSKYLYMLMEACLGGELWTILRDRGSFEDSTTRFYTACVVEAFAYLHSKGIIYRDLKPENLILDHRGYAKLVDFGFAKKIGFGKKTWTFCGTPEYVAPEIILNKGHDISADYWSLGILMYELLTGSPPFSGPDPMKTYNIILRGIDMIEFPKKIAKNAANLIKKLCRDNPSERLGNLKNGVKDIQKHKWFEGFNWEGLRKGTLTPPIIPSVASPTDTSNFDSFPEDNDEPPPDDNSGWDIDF
Protocol: as §4

ERK8 = ERK8 (Homo sapiens, UniProt Q8TD08); assay: KINOMEscan; details: read-out: Percent Control
Sequence of ERK8 (Q8TD08 whole entry): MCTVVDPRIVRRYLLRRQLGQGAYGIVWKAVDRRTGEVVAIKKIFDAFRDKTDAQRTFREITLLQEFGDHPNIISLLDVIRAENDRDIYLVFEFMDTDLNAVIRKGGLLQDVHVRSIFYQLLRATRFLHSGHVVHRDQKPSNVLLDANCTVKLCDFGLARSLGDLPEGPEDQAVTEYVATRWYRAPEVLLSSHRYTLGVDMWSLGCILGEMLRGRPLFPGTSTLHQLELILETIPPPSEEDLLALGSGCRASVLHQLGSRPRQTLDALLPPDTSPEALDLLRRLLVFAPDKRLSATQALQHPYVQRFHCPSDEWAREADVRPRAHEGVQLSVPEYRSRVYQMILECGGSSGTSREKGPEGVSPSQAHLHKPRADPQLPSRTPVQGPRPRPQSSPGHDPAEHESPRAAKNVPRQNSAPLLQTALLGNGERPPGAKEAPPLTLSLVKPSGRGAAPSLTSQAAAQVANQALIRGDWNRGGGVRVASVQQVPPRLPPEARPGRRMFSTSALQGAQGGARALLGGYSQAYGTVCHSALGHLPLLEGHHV
Protocol: as §4

MRCKA = MRCKA (Homo sapiens, UniProt Q5VT25); assay: KINOMEscan; details: read-out: Percent Control
Protocol: as §4

RIPK1 = RIPK1 (Homo sapiens, UniProt Q13546); assay: KINOMEscan; details: read-out: Percent Control
Protocol: as §4

EGFR = EGFR (Homo sapiens, UniProt P00533); assay: KINOMEscan; details: read-out: Percent Control
Protocol: as §4

MTOR = MTOR (Homo sapiens, UniProt P42345); assay: KINOMEscan; details: read-out: Percent Control
Protocol: as §4

PIK3CG = PIK3CG (Homo sapiens, UniProt P48736); assay: KINOMEscan; details: read-out: Percent Control
Sequence of PIK3CG (P48736 whole entry): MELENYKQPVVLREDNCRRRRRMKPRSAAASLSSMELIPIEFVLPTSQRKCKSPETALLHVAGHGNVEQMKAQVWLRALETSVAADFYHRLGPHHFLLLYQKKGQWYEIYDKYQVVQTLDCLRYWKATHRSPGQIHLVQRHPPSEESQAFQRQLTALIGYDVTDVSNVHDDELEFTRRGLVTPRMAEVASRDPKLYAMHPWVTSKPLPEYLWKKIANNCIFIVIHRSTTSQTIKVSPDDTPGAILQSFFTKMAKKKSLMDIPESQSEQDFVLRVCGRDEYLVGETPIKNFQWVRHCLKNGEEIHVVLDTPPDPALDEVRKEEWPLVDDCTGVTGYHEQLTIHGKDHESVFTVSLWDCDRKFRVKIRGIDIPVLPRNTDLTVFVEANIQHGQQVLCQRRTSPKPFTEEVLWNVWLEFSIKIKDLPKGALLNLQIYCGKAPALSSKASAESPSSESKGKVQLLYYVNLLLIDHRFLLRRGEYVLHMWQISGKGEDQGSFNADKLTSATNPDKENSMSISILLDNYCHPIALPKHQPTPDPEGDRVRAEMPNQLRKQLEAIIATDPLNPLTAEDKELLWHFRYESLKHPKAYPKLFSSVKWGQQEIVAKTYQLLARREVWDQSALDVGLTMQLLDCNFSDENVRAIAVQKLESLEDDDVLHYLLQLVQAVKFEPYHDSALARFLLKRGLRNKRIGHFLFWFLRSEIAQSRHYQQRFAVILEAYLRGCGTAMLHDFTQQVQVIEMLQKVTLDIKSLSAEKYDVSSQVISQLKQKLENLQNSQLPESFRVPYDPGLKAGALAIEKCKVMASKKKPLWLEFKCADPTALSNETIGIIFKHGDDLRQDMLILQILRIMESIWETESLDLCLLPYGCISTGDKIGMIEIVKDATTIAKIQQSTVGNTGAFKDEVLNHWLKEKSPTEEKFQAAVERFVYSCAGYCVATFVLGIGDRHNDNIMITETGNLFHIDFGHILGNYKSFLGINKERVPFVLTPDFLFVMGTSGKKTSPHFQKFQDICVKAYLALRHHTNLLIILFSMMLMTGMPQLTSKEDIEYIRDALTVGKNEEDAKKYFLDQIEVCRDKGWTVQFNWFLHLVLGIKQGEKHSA
Protocol: as §4

WNK4 = WNK4 (Homo sapiens, UniProt Q96J92); assay: KINOMEscan; details: read-out: Percent Control
Sequence of WNK4 (Q96J92 whole entry): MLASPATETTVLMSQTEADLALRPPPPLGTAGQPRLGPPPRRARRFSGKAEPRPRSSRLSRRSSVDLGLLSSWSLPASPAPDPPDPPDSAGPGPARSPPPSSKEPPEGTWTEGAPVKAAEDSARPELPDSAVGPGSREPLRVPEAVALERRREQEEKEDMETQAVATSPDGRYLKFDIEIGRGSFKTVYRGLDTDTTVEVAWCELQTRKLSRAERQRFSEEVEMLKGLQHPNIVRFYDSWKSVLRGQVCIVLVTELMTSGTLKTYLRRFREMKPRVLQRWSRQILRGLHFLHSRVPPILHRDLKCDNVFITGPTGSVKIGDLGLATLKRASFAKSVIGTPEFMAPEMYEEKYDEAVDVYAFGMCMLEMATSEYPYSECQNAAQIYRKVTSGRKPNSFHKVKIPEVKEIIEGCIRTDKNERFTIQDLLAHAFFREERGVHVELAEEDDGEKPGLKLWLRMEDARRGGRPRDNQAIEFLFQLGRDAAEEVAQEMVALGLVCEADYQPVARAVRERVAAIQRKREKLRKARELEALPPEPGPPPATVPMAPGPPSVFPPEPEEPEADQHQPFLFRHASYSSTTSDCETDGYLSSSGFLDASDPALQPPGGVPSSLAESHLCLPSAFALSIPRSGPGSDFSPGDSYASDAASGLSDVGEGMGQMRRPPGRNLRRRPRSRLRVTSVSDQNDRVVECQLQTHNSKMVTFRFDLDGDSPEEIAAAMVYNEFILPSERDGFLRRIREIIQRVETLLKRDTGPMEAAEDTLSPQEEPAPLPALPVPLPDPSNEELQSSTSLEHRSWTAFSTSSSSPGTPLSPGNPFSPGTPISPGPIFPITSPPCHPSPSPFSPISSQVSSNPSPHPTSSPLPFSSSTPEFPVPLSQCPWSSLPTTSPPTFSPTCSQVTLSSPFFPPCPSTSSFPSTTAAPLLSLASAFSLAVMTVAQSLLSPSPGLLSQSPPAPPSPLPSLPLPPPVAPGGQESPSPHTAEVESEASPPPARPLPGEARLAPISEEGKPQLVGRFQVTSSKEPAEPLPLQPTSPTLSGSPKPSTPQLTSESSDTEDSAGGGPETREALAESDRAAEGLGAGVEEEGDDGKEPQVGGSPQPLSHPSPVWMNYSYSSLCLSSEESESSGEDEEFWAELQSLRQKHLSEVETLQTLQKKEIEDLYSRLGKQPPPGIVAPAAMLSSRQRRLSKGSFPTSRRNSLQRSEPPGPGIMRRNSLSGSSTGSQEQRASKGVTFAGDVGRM
Protocol: as §4

NEK7 = NEK7 (Homo sapiens, UniProt Q8TDX7); assay: KINOMEscan; details: read-out: Percent Control
Protocol: as §4

YES = YES (Homo sapiens, UniProt P07947); assay: KINOMEscan; details: read-out: Percent Control
Protocol: as §4

PLK1 = PLK1 (Homo sapiens, UniProt P53350); assay: KINOMEscan; details: read-out: Percent Control
Protocol: as §4

FLT4 = FLT4 (Homo sapiens, UniProt P35916); assay: KINOMEscan; details: read-out: Percent Control
Protocol: as §4

FER = FER (Homo sapiens, UniProt P16591); assay: KINOMEscan; details: read-out: Percent Control
Protocol: as §4

SRC = SRC (Homo sapiens, UniProt P12931); assay: KINOMEscan; details: read-out: Percent Control
Sequence of SRC (P12931 whole entry): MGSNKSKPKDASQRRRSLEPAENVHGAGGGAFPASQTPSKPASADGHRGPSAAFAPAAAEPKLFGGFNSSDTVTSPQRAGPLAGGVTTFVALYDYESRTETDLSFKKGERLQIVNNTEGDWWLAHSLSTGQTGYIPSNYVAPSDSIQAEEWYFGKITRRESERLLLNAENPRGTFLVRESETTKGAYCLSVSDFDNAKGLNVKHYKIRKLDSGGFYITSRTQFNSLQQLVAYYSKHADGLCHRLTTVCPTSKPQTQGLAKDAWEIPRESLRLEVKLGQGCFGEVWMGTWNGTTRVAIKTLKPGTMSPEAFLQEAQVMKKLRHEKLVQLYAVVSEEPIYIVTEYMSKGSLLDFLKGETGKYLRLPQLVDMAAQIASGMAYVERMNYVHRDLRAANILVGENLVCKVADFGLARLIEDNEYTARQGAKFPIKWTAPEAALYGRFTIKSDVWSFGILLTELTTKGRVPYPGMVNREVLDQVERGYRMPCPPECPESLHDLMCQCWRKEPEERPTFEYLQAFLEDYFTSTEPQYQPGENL
Protocol: as §4

DYRK2 = DYRK2 (Homo sapiens, UniProt Q92630); assay: KINOMEscan; details: read-out: Percent Control
Protocol: as §4

SRPK3 = SRPK3 (Homo sapiens, UniProt Q9UPE1); assay: KINOMEscan; details: read-out: Percent Control
Protocol: as §4

MKNK2 = MKNK2 (Homo sapiens, UniProt Q9HBH9); assay: KINOMEscan; details: read-out: Percent Control
Protocol: as §4

PKN1 = PKN1 (Homo sapiens, UniProt Q16512); assay: KINOMEscan; details: read-out: Percent Control
Protocol: as §4

LRRK2(G2019S) = LRRK2(G2019S) (Homo sapiens, UniProt Q5S007, G2019S); assay: KINOMEscan; details: read-out: Percent Control
Protocol: as §4

PIP5K1C = PIP5K1C (Homo sapiens, UniProt O60331); assay: KINOMEscan; details: read-out: Percent Control
Protocol: as §4

LOK = LOK (Homo sapiens, UniProt O94804); assay: KINOMEscan; details: read-out: Percent Control
Protocol: as §4

RET(V804L) = RET(V804L) (Homo sapiens, UniProt P07949, V804L); assay: KINOMEscan; details: read-out: Percent Control
Protocol: as §4

BTK = BTK (Homo sapiens, UniProt Q06187); assay: KINOMEscan; details: read-out: Percent Control
Protocol: as §4

CDK4-cyclinD3 = CDK4-cyclinD3 (Homo sapiens, UniProt P11802); assay: KINOMEscan; details: read-out: Percent Control
Protocol: as §4

KIT-autoinhibited = KIT-autoinhibited (Homo sapiens, UniProt P10721); assay: KINOMEscan; details: read-out: Percent Control
Protocol: as §4

MEK1 = MEK1 (Homo sapiens, UniProt Q02750); assay: KINOMEscan; details: read-out: Percent Control
Protocol: as §4

MEK5 = MEK5 (Homo sapiens, UniProt Q13163); assay: KINOMEscan; details: read-out: Percent Control
Sequence of MEK5 (Q13163 whole entry): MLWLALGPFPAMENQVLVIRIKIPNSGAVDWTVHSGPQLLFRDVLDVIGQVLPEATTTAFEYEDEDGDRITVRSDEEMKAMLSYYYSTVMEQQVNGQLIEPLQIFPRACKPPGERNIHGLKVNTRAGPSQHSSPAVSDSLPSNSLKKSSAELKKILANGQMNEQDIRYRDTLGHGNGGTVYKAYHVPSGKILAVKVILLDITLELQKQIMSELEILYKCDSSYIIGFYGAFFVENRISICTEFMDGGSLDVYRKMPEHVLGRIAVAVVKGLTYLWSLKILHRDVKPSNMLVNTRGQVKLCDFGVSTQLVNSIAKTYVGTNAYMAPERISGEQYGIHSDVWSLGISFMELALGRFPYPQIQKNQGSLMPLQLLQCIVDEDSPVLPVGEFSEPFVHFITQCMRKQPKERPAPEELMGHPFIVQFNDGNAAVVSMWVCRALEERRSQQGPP
Protocol: as §4

MYLK = MYLK (Homo sapiens, UniProt Q15746); assay: KINOMEscan; details: read-out: Percent Control
Protocol: as §4

PIK3CA(Q546K) = PIK3CA(Q546K) (Homo sapiens, UniProt P42336, Q546K); assay: KINOMEscan; details: read-out: Percent Control
Protocol: as §4

PRKG2 = PRKG2 (Homo sapiens, UniProt Q13237); assay: KINOMEscan; details: read-out: Percent Control
Protocol: as §4

VPS34 = VPS34 (Homo sapiens, UniProt Q8NEB9); assay: KINOMEscan; details: read-out: Percent Control
Protocol: as §4

O=C1CCC(N2C(=O)c3cccc(NCCCCCCCCNC(=O)N4CC[C@H](NC5=Nc6cc(F)ccc6N(CC(F)F)c6ccc(Cl)cc65)C4)c3C2=O)C(=O)N1 (stereo partly drawn) [BJG-05-039, (3S)-3-((2-Chloro-5-(2,2-difluoroethyl)-8-fluoro-5H-dibenzo[b,e][1,4]diazepin-11-yl)amino)-N-(8-((2-(2,6-dioxopiperidin-3-yl)-1,3-dioxoisoindolin-4-yl)amino)octyl)pyrrolidine-1-carboxamide]
Effect on cell proliferation (Hey A8 cells; HEY-A8 cells (PAK2-dependent)): Neither BJG-05-039 or NVS-PAK1-1 significantly affected cell proliferation
EC50 (Hey A8 cells; Hey A8 cells (PAK2-dependent), read-out: EC50, anti-proliferative): 36 µM
EC50 (MCF7 cells; first statement of b311): 0.003 µM
EC50 (MCF7 cells; second listing of b311): 0.086 µM
Effect on cell proliferation (OMM1 cells): Neither BJG-05-039 or NVS-PAK1-1 significantly affected cell proliferation
EC50 (OMM1 cells; OMM-1, read-out: EC50, anti-proliferative): 20.8 µM
remaining binding at 10 µM (TNIK): 48%
remaining binding at 10 µM (MST3): 52%
remaining binding at 10 µM (PRKG1): 57%
remaining binding at 10 µM (ERK8): 63%
remaining binding at 10 µM (MRCKA): 63%
remaining binding at 10 µM (RIPK1): 65%
remaining binding at 10 µM (EGFR): 74%
remaining binding at 10 µM (MTOR): 74%
remaining binding at 10 µM (PIK3CG): 77%
remaining binding at 10 µM (WNK4): 77%
remaining binding at 10 µM (NEK7): 79%
remaining binding at 10 µM (YES): 79%
remaining binding at 10 µM (PLK1): 82%
remaining binding at 10 µM (FLT4): 86%
remaining binding at 10 µM (FER): 88%
remaining binding at 10 µM (SRC): 88%
remaining binding at 10 µM (DYRK2): 89%
remaining binding at 10 µM (SRPK3): 93%
remaining binding at 10 µM (MKNK2): 94%
remaining binding at 10 µM (PKN1): 95%
remaining binding at 10 µM (LRRK2(G2019S)): 96%
remaining binding at 10 µM (PIP5K1C): 96%
remaining binding at 10 µM (LOK): 98%
remaining binding at 10 µM (RET(V804L)): 99%
remaining binding at 10 µM (BTK): 100%
remaining binding at 10 µM (CDK4-cyclinD3): 100%
remaining binding at 10 µM (KIT-autoinhibited): 100%
remaining binding at 10 µM (MEK1): 100%
remaining binding at 10 µM (MEK5): 100%
remaining binding at 10 µM (MYLK): 100%
remaining binding at 10 µM (PIK3CA(Q546K)): 100%
remaining binding at 10 µM (PRKG2): 100%
remaining binding at 10 µM (VPS34): 100%
